Test results reported in patent US20220274938A1, “5-[(1S)-1-(4-BROMOPHENOXY)ETHYL]-2H-TETRAZOLE DERIVATIVES AND RELATED COMPOUNDS AS CLC-1 ION CHANNEL INHIBITORS FOR TREATING NEUROMUSCULAR DISORDERS” (NMD PHARMA A/S, priority 2019, published 2022).

Biological target: T1, human CIC-1 channels (Homo sapiens, UniProt P35523)
T1 construct: host or cells: CHO (Chinese hamster ovary) cells, cryopreserved, used directly after thawing
Test: Automated patch-clamp on the human isoform of CIC-1 expressed in CHO cells
Format: cell-based
Conditions: compound added to the intracellular solution vs control cell patches, positive shift reflects inhibition
Experimental: The investigatory goal of these experiments was to evaluate how compounds affect the open probability and current amplitude of human CIC-1 channels expressed in CHO cells. Experiments were performed using an automated patch clamp system that allowed high throughput testing of whole cell patches together with both intracellular and extracellular addition of compound.
Automated whole cell patch clamp experiments were performed with the Qpatch 16 system (Sophion Bioscience, Ballerup, Denmark) at room temperature. Data acquisition and analysis were performed in the Qassay software (ver. 5.6, Odense).
To obtain tail currents, the membrane potential was stepped to −100 mV after each test voltage for 300 ms and then relaxed to −30 mV for 2 sec between sweeps (FIG. 3). I/V relationships for whole cell instant and steady state current amplitudes were obtained by plotting average current densities at the beginning and at the end of the 300 ms step against the membrane potential (FIG. 4).
In order to determine the relative overall open probability (Po), the instantaneous tail currents were normalized to the maximal tail current obtained following the most positive voltage step and plotted against the test voltage. Plots of normalized tail currents from each whole cell patch were then fitted to a Boltzmann function allowing determination of half activation voltages (V1/2, FIG. 5).
Osmolality adjusted to ˜320 using sucrose. Intracellular solutions contained: 80 mM CsF, 60 mM CsCl, 5/1 mM KOH/EGTA, 10 mM HEPES, 10 mM NaCl, pH adjusted to 7.2 with NaOH (2 M). Osmolality adjusted to ˜320 mOsm using sucrose.
Cells used in patch clamp experiments were Chinese hamster ovary cells (CHO) constitutively expressing human CIC-1 channels. The amino acid sequence encoded by the cDNA used to create this cell line was identical to the translated sequence for GenBank accession number NM_000083.2. Cells were produced by Charles River (Catalogue CT6175, Cleveland Ohio, USA) in a cryopreserved format. Experiments were performed on the cells directly after thawing (3×10^6 cells used in each experiment).
To evaluate the compound effect on CIC-1, when applied directly to the intracellular side of the cell membrane, the half activation voltage, V1/2, was determined from whole cell patches with compound added to the intracellular solution and then compared to V1/2 determined from control cell patches with only vehicle added to the intracellular solution. Additionally, the effect of extracellular added compound was evaluated by determine V1/2 and steady state current amplitudes before and after exchanging the extracellular solution to contain compound.
The difference in half activation voltage of CIC-1 channels, ΔV1/2, was determined as the difference between the cell patches treated intracellularly with compound and control cells patches and is reported in Table 4 below. A positive shift in ΔV1/2 is reflecting CIC-1 channel inhibition by the tested compound. P-values of <0.05 is considered significant.

T1 sequence (P35523 whole entry): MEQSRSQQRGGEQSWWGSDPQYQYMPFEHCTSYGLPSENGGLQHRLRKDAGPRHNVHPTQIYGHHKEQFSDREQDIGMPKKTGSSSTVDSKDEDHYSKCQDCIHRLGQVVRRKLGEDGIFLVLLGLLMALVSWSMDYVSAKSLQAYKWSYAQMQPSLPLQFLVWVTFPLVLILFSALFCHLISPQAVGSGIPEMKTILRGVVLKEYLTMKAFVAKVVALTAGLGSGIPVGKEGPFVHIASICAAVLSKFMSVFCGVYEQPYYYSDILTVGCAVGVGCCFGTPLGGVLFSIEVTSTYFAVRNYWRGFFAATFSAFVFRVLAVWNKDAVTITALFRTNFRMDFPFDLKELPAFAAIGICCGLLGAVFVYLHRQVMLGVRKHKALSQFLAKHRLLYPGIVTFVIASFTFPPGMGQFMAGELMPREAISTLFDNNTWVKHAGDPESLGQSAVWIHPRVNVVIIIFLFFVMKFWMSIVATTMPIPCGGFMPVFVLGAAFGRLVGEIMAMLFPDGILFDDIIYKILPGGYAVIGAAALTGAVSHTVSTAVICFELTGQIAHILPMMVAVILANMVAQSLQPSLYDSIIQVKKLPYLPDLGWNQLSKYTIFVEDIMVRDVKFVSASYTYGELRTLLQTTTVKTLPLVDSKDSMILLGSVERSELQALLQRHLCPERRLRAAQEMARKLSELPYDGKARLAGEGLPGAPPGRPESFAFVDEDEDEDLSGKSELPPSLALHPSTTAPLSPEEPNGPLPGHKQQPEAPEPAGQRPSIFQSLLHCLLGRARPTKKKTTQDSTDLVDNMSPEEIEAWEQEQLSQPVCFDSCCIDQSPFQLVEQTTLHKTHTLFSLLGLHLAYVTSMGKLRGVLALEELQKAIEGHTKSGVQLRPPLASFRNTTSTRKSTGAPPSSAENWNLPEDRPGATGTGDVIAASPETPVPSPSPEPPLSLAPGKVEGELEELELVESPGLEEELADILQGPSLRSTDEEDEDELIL

Row | SMILES | ΔV1/2 (difference in half activation voltage of CIC-1 channels) [mV]
1 | C[C@H](Oc1ccc(Cl)cc1)C(=O)NOC1CCC1 [Compound C-80, (2S)-2-(4-chlorophenoxy)-N-cyclobutoxypropanamide] | 9.9
2 | C[C@H](Oc1ccc(Br)cc1F)c1nn[nH]n1 [Compound E-8, 5-[(1S)-1-(4-bromo-2-fluorophenoxy)ethyl]-2H-1,2,3,4-tetrazole] | 38.4
